# Measured values published in publication PMC11480411, “Mucosal sugars delineate pyrazine vs pyrazinone autoinducer signaling in Klebsiella oxytoca” (Nature Communications, 2024).
# Values joined by “and” are separate entries in the source; they are usually repeats but may differ in a detail not shown here. Identical values can stand only once.
# Key:
# [1] = molecular target: T1, histamine receptor H4 (HRH4) (Homo sapiens, UniProt Q9H3N8); experiment: PRESTO-Tango GPCR screen and dose-response; assay type: cell-based; details: for GPCR activation (heatmap value): HRH4, 100 µM; for HRH4 dose-response raw reporter signal (Fig. 5b source data): replicate wells; for EC50: PRESTO-Tango dose-response, n = 3, read-out: EC50 (HRH4 activation)
# T1 construct: expressed in transfected cells; host or cells: HTLA cells (HEK293 line stably expressing β-arrestin-TEV and tTA-Luciferase)
# T1 sequence (Q9H3N8 whole entry): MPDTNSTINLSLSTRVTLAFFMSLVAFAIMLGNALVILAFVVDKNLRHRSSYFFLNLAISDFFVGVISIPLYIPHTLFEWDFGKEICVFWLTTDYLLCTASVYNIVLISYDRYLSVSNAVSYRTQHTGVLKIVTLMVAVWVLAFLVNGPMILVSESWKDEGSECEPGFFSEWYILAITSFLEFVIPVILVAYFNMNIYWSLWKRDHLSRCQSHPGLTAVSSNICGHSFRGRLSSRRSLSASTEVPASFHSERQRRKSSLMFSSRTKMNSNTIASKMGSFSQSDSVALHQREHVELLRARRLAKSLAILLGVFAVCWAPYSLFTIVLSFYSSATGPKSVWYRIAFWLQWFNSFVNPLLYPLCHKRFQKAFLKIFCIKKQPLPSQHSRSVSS
# Procedure, shortened: (§1)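 Each receptor was expressed from a Tango plasmid in HTLA cells, which stably carry β-arrestin-TEV and a tTA-driven luciferase reporter. Single-point screening used 100 μM final compound for 20 h, and the signal was normalised to PBS control. Concentration-response testing spanned 10^−4 to 10^−15 M.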
# [2] = molecular target: T2, HRH2 (Homo sapiens, UniProt P25021); experiment: PRESTO-Tango GPCR screen and dose-response; assay type: cell-based; details: for GPCR activation (heatmap value): HRH2, 100 µM; for HRH2 dose-response raw reporter signal (Fig. 5b source data): replicate wells
# T2 construct: expressed in transfected cells; host or cells: HTLA cells (HEK293 line stably expressing β-arrestin-TEV and tTA-Luciferase)
# T2 sequence (P25021 whole entry): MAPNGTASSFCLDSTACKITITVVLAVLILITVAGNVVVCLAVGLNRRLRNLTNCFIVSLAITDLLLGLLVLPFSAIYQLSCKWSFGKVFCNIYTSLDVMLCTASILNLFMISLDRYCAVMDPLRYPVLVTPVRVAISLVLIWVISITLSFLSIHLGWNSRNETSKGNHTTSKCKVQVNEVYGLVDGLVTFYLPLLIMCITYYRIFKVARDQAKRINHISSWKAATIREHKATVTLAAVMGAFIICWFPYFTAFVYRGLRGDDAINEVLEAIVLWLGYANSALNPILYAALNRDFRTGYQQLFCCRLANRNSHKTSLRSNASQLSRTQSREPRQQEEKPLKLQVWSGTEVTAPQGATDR
# Procedure, shortened: as §1
# [3] = tested on: ∆pyr K. oxytoca; experiment: RNA-seq of compound-supplemented ∆pyr K. oxytoca; assay type: cell-based, Klebsiella oxytoca ATCC 8724; details: 10 µM
# Procedure: A ∆pyr K. oxytoca glycerol stock was streaked onto an LB-Agar plate supplemented with spectinomycin (50 µg/mL) and incubated aerobically at 30°C for 24 h in a stationary incubator. Single colonies were grown for 24 h aerobically in 5 mL of M9 minimal medium supplemented with 5 g/L casamino acids and 0.4% D-galactose at 30 °C and 250 rpm. Each ∆pyr K. oxytoca overnight culture was diluted 1:1000 into fresh medium (5 mL) and incubated aerobically at 30 °C and 250 rpm to mid-exponential growth (OD600 = 0.8). These conditions abrogated both detectable pyrazine and pyrazinone production. At this point, 10 µM of compound in DMSO, were added to the cultures; an equal volume of DMSO was added to cultures without compound as a solvent vehicle control. The cultures were incubated under aerobic conditions with the compounds for one hour at 30 °C and at 250 rpm. After incubation, the cultures were centrifuged, the supernatants were decanted, and the cell pellets were quickly resuspended in 5 mL of Bacterial RNAProtect (Qiagen). The samples were centrifuged again, and the pellets were frozen on dry ice and stored at −80 °C until RNA extraction. The processed cell pellets were thawed on ice and resuspended in 200 µL of lysis buffer (10 mM Tris, 1 mM EDTA, 5 mg/mL lysozyme, 12.5 µg/mL proteinase K [pH 8.0]) and incubated at room temperature for 10 min. The RNA was extracted via the Qiagen RNeasy Mini kit, treated with TURBO DNase in a total volume of 100 µL at room temperature for 30 min, and extracted again using an RNeasy Mini kit. RNA-seq analysis was conducted by the Yale Center for Genome Analysis. Sequences were aligned to the K. oxytoca ATCC 8724 genome (NC_016612.1). Differential expression analysis was performed through DESeq2 and pathway enrichment analysis was performed through the Funage-Pro web-based platform.
SMILES,GPCR activation (heatmap value) [1],HRH4 dose-response raw reporter signal (Fig. 5b source data) ([1]; Log(10)Conc (M) -5),HRH4 dose-response raw reporter signal (Fig. 5b source data) ([1]; Log(10)Conc (M) -6),HRH4 dose-response raw reporter signal (Fig. 5b source data) ([1]; Log(10)Conc (M) -7),HRH4 dose-response raw reporter signal (Fig. 5b source data) ([1]; Log(10)Conc (M) -8),HRH4 dose-response raw reporter signal (Fig. 5b source data) ([1]; Log(10)Conc (M) -9),HRH4 dose-response raw reporter signal (Fig. 5b source data) ([1]; Log(10)Conc (M) -10),HRH4 dose-response raw reporter signal (Fig. 5b source data) ([1]; Log(10)Conc (M) -11),HRH4 dose-response raw reporter signal (Fig. 5b source data) ([1]; Log(10)Conc (M) -12),HRH4 dose-response raw reporter signal (Fig. 5b source data) ([1]; Log(10)Conc (M) -13),HRH4 dose-response raw reporter signal (Fig. 5b source data) ([1]; Log(10)Conc (M) -14),HRH4 dose-response raw reporter signal (Fig. 5b source data) ([1]; Log(10)Conc (M) -15),EC50 [1],GPCR activation (heatmap value) [2],HRH2 dose-response raw reporter signal (Fig. 5b source data) ([2]; Log(10)Conc (M) -4),HRH2 dose-response raw reporter signal (Fig. 5b source data) ([2]; Log(10)Conc (M) -5),HRH2 dose-response raw reporter signal (Fig. 5b source data) ([2]; Log(10)Conc (M) -6),HRH2 dose-response raw reporter signal (Fig. 5b source data) ([2]; Log(10)Conc (M) -7),HRH2 dose-response raw reporter signal (Fig. 5b source data) ([2]; Log(10)Conc (M) -8),HRH2 dose-response raw reporter signal (Fig. 5b source data) ([2]; Log(10)Conc (M) -9),further results
CC(C)Cc1ncc(CCCCNC(=N)N)[nH]c1=O [3-Homo],2.481,18151 and 17815,6385 and 6598,1365 and 1430,793 and 758,522 and 575,463 and 475,357 and 469,542 and 504,404 and 363,351 and 360,333 and 448,2.7 µM,0.6697,77 and 94 and 47,50 and 38 and 83,68 and 53 and 83,59 and 65 and 91,56 and 50 and 59,44 (2×) and 59,HRH2 dose-response raw reporter signal (Fig. 5b source data) ([2]; Log(10)Conc (M) -10): 53 and 62 (2×); HRH2 dose-response raw reporter signal (Fig. 5b source data) ([2]; Log(10)Conc (M) -11): 29 and 53 and 74; HRH2 dose-response raw reporter signal (Fig. 5b source data) ([2]; Log(10)Conc (M) -12): 50 and 65 and 53; HRH2 dose-response raw reporter signal (Fig. 5b source data) ([2]; Log(10)Conc (M) -13): 53 and 27 and 91; HRH2 dose-response raw reporter signal (Fig. 5b source data) ([2]; Log(10)Conc (M) -14): 41 and 77 and 68; HRH2 dose-response raw reporter signal (Fig. 5b source data) ([2]; Log(10)Conc (M) -15): 47 and 29 and 100
CC(C)Cc1ncc(CCCNC(=N)N)[nH]c1=O [compound 3],2.217,8773 and 9531,1621 and 2108,649 and 769,454 and 619,531 and 542,578 and 380,348 and 430,348 and 454,286 and 351,262 and 481,292 and 283,12.5 µM,-0.4047,18 and 44 and 35,83 and 74 and 44,38 (2×) and 44,91 and 59 and 47,50 (2×) and 41,44 and 41 and 71,"number of differentially regulated genes ([3]; one hour, vs DMSO, Padj < 0.05, abs(log2FC) > 1): 561 genes; effect on enterobactin BGC transcription ([3]; vs DMSO control, RNA-seq): significantly enhanced transcription of the enterobactin BGC; KEGG pathway enrichment neglogP: ABC Transporters, upregulated ([3]; Funage-Pro, 3 upreg): 5.638; KEGG pathway enrichment neglogP: Biosynthesis of siderophore group nonribosomal peptides, upregulated ([3]; Funage-Pro, 3 upreg): 9.097; effect on yersiniabactin BGC transcription ([3]; RNA-seq, pyrazinone 3 compared with pyrazine 7): prominently upregulated the yersiniabactin BGC; HRH2 dose-response raw reporter signal (Fig. 5b source data) ([2]; Log(10)Conc (M) -10): 53 and 47 and 59; HRH2 dose-response raw reporter signal (Fig. 5b source data) ([2]; Log(10)Conc (M) -11): 56 (2×) and 44; HRH2 dose-response raw reporter signal (Fig. 5b source data) ([2]; Log(10)Conc (M) -12): 41 (2×) and 27; HRH2 dose-response raw reporter signal (Fig. 5b source data) ([2]; Log(10)Conc (M) -13): 29 and 47 and 56; HRH2 dose-response raw reporter signal (Fig. 5b source data) ([2]; Log(10)Conc (M) -14): 106 and 71 and 50; HRH2 dose-response raw reporter signal (Fig. 5b source data) ([2]; Log(10)Conc (M) -15): 100 and 35 and 29"
